According to patent US20220235011A1, “PHTHALAZINONE COMPOUNDS AND USE THEREOF” (ST PHARM CO., LTD., priority 2019, published 2022):

target: T1, Sirt6 (Homo sapiens, UniProt Q8N6T7); experiment: Measurement of Sirt6 Activity (CycLex Sirt6 Deacetylase Fluorometric Assay Kit); format: biochemical; details: compound at 10 μM; fluorescence relative to the group without compound treatment (positive control group)
T1 construct: purchased CycLex CY-1156V2
Experimental: LC-MS (ESI, m/z)=430.1 (M+H^+) Experimental Example 1: Measurement of Sirt6 Activity Compounds having Sirt6 activity were selected using a CycLex Sirt6 Deacetylase Fluorometric Assay Kit (cat. CY-1156V2) manufactured by CycLex.
When a fluorescent-attached acetylated lysine substrate is treated with Sirt6 enzyme, Sirt6 deacetylates the acetylated lysine of the substrate and lysylendopeptidase cleaves the C-terminal peptide bond connected to the lysine, by which fluorescence is emitted. The activity of a compound is calculated by observing the intensity of fluorescence when the compound is treated along with Sirt6 enzyme. When treating the compound, the compound aids in the activity of Sirt6 enzyme, so as to result in stronger fluorescence. Therefore, by calculating the ratio of the stronger fluorescence relative to the fluorescence emitted from the group without compound treatment (i.e., positive control group), relative activity can be calculated.
Activity evaluation was performed according to the following procedure.
The compound whose activity is to be evaluated was prepared by diluting in phosphate-buffered saline (PBS) to 10 times of the desired concentration (e.g., when measuring Sirt6 assay activity at 10 μM, the compound is prepared at a concentration of 100 μM in PBS). 1 μL of a 1 Ox Sirt6 assay buffer, 0.8 μL of 50× fluoro-substrate peptide, 1 μL of nicotinamide adenine dinucleotide (NAD), 1 μL of a developer and 4.2 μL of H2O were mixed to prepare mixtures equal to the number of samples, and 8 μL was dispensed into each Black 384 well. An additional 1 μL of PBS was added to each of a “no enzyme group” and a positive control group, and 1 μL of the compound diluted in PBS was added to an activity evaluation group. Recombinant Sirt6 was 1:8 diluted in a 1×Sirt6 assay buffer, and 1 μL thereof was added to each of the positive control group and the activity evaluation group. 1 μL of the 1×Sirt6 assay buffer was added to the “no enzyme group.” After reacting at room temperature for one hour, results were measured with a fluorescence spectrometer (excitation: 490±10 nm, emission: 530±10 nm) to confirm the presence or absence of Sirt6 activity and measure the intensity of the activity.

T1 sequence (Q8N6T7 whole entry): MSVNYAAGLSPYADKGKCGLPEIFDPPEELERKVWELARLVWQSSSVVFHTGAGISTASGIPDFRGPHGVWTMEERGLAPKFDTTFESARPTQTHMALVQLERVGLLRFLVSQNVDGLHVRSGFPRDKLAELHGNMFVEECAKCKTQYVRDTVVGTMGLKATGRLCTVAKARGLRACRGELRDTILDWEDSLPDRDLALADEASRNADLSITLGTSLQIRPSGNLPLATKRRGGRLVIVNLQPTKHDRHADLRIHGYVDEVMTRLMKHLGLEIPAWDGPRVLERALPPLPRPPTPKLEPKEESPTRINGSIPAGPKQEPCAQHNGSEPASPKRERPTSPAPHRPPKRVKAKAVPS

Sirt6 Activity (% activity, 10 μM) [% activity] | SMILES
133 | CC(C)/[N+]([O-])=C/c1cccc(-c2nn(-c3ccccc3F)c(=O)c3ccccc23)c1 [Example 95, (Z)-1-(3-(3-(2-Fluorophenyl)-4-oxo-3,4-dihydrophthalazin-1-yl)phenyl)-N-isopropyl Methanimine Oxide]
195.5 | CC(C)(C(=O)O)c1cccc(-c2nn(-c3ccc(F)cc3)c(=O)c3ccccc23)c1 [Example 152, 2-(3-(3-(4-Fluorophenyl)-4-oxo-3,4-dihydrophthalazin-1-yl)phenyl)-2-methylpropanoic Acid]
103 | CS(=O)(=O)c1cccc(-c2nn(-c3ccccc3)c(=O)c3cc(F)ccc23)c1 [Example 112, 7-Fluoro-4-(3-(methylsulfonyl)phenyl)-2-phenylphthalazin-1(2H)-one]
287.30 | O=C(O)C1(c2cccc(-c3nn(-c4ccc(Cl)cc4)c(=O)c4ccccc34)c2)CC1 [Example 195, 1-(3-(3-(4-Chlorophenyl)-4-oxo-3,4-dihydrophthalazin-1-yl)phenyl)cyclopropan-1-carboxylic Acid]
303.80 | CCS(=O)(=O)N[C@@H]1CCCCN(c2nn(-c3ccc(F)cc3F)c(=O)c3ccccc23)C1 [Example 187, (R)—N-(1-(3-(2,4-Difluorophenyl)-4-oxo-3,4-dihydrophthalazin-1-yl)azepan-3-yl)ethanesulfonamide]
176 | CC(C)(C)/[N+]([O-])=C/c1cccc(-c2nn(-c3ccc(F)c(Cl)c3)c(=O)c3ccccc23)c1 [Example 34, (Z)—N-tert-Butyl-1-(3-(3-(3-chloro-4-fluorophenyl)-4-oxo-3,4-dihydrophthalazin-1-yl)phenyl) Methanimine Oxide]
177.53 | CCS(=O)(=O)Nc1cccc(-c2nn(C3CCCCC3)c(=O)c3ccccc23)c1 [Example 128, N-(3-(3-Cyclohexyl-4-oxo-3,4-dihydrophthalazin-1-yl)phenyl)ethanesulfonamide]
149.41 | O=C(O)Cc1cccc(-c2nn(-c3ccc(F)cc3F)c(=O)c3ccccc23)c1 [Example 199, 2-(3-(3-(2,4-Difluorophenyl)-4-oxo-3,4-dihydrophthalazin-1-yl)phenyl)acetic Acid]
321 | O=c1c2ccccc2c(-c2cccc(S(=O)(=O)NCCO)c2)nn1-c1ccc(F)cc1F [Example 127, 3-(3-(2,4-Difluorophenyl)-4-oxo-3,4-dihydrophthalazin-1-yl)-N-(2-hydroxyethyl)benzene Sulfonamide]
206 | C/[N+]([O-])=C/c1cccc(-c2nn(-c3c(F)cccc3F)c(=O)c3ccccc23)c1 [Example 102, (Z)-1-(3-(3-(2,6-Difluorophenyl)-4-oxo-3,4-dihydrophthalazin-1-yl)phenyl)-N-methylmethanimine Oxide]
226 | CS(=O)(=O)c1cccc(-c2nn(-c3c(F)cccc3F)c(=O)c3ccccc23)c1 [Example 105, 2-(2,6-Difluorophenyl)-4-(3-(methylsulfonyl)phenyl)phthalazin-1 (2H)-one]
136.6 | CCS(=O)(=O)Nc1cccc(-c2nn(C3CCC(C)CC3)c(=O)c3ccccc23)c1 (centres unmarked) [Example 145, N-(3-(3-(4-Methylcyclohexyl)-4-oxo-3,4-dihydrophthalazin-1-yl)phenyl)ethanesulfonamide]
283 | CCS(=O)(=O)c1cccc(-c2nn(-c3ccc(F)cc3F)c(=O)c3ccccc23)c1 [Example 90, 2-(2,4-Difluorophenyl)-4-(3-(ethylsulfonyl)phenyl)phthalazin-1(2H)-one]
134.7 | CC(C)(C(=O)O)c1cccc(-c2nn(-c3ccccc3F)c(=O)c3ccccc23)c1 [Example 171, 2-(3-(3-(2-Fluorophenyl)-4-oxo-3,4-dihydrophthalazin-1-yl)phenyl)-2-methylpropanoic Acid]
125.50 | CC(C)(C(=O)O)C1CN(c2nn(-c3ccc(F)cc3F)c(=O)c3ccccc23)CCO1 (centres unmarked) [Example 221, 2-(4-(3-(2,4-Difluorophenyl)-4-oxo-3,4-dihydrophthalazin-1-yl)morpholin-2-yl)-2-methylpropanoic Acid]
105 | CCS(=O)(=O)N(C)c1cccc(-c2nn(-c3ccc(C(F)(F)F)cc3)c(=O)c3ccccc23)c1 [Example 5, N-Methyl-N-(3-(4-oxo-3-(4-(trifluoromethyl)phenyl)-3,4-dihydrophthalazin-1-yl)phenyl)ethanesulfonamide]
142 | C/[N+]([O-])=C\c1ccc(-c2nn(-c3ccc(F)cc3)c(=O)c3ccccc23)cc1 [Example 36, (E)-1-(4-(3-(4-Fluorophenyl)-4-oxo-3,4-dihydrophthalazin-1-yl)phenyl)-N-methylmethanimine Oxide]
111 | CCS(=O)(=O)Nc1cncc(-c2nn(-c3ccc(F)cc3)c(=O)c3ccccc23)c1 [Example 82, N-(5-(3-(4-Fluorophenyl)-4-oxo-3,4-dihydrophthalazin-1-yl)pyridin-3-yl)ethanesulfonamide]
176 | CC(C)(C)/[N+]([O-])=C/c1cccc(-c2nn(-c3ccccc3F)c(=O)c3ccccc23)c1 [Example 96, (Z)—N-tert-Butyl-1-(3-(3-(2-fluorophenyl)-4-oxo-3,4-dihydrophthalazin-1-yl)phenyl)methanimine Oxide]
114.2 | Cc1nc(C(C)(C)c2cccc(-c3nn(-c4ccc(F)cc4F)c(=O)c4ccccc34)c2)no1 [Example 174, 2-(2,4-Difluorophenyl)-4-(3-(2-(5-methyl-1,2,4-oxadiazol-3-yl)propan-2-yl)phenyl)phthalazin-1(2H)-one]
149 | CC(C)(C)/[N+]([O-])=C/c1ccc(F)c(-c2nn(-c3ccc(F)cc3)c(=O)c3ccccc23)c1 [Example 57, (Z)—N-tert-Butyl-1-(4-fluoro-3-(3-(4-fluorophenyl)-4-oxo-3,4-dihydrophthalazin-1-yl)phenyl) Methanimine Oxide]
104.16 | CCS(=O)(=O)Nc1cccc(-c2nn(C3CCN(C)CC3)c(=O)c3ccccc23)c1 [Example 129, N-(3-(3-(1-Methylpiperidin-4-yl)-4-oxo-3,4-dihydrophthalazin-1-yl)phenyl)ethane Sulfonamide]
118.8 | CCS(=O)(=O)Nc1cccc(-c2nn(-c3cnn(C)c3)c(=O)c3ccccc23)c1 [Example 133, N-(3-(3-(1-Methyl-1H-pyrazol-4-yl)-4-oxo-3,4-dihydrophthalazin-1-yl)phenyl)ethanesulfonamide]
192 | CC(C)(C)/[N+]([O-])=C/c1cccc(-c2nn(-c3ccc(F)cc3F)c(=O)c3ccccc23)c1 [Example 23, (Z)—N-tert-Butyl-1-(3-(3-(2,4-difluorophenyl)-4-oxo-3,4-dihydrophthalazin-1-yl)phenyl)methanimine Oxide]
405 | O=c1c2ccccc2c(-c2cccnc2)nn1-c1ccc(F)cc1F [Example 115, 2-(2,4-Difluorophenyl)-4-(pyridin-3-yl)phthalazin-1(2H)-one]
167.53 | Cl.NC1CCCN(c2nn(-c3ccc(F)cc3)c(=O)c3ccccc23)C1 (centres unmarked) [Example 134, 4-(3-Aminopiperidin-1-yl)-2-(4-fluorophenyl)phthalazin-1(2H)-one-hydrochloride]
350.20 | CC(C)(C(=O)O)c1cccc(-c2nn(-c3ccc(Cl)cc3)c(=O)c3ccccc23)c1 [Example 194, 2-(3-(3-(4-Chlorophenyl)-4-oxo-3,4-dihydrophthalazin-1-yl)phenyl)-2-methylpropanoic Acid]
128 | CN(c1cccc(-c2nn(-c3ccc(F)cc3)c(=O)c3ccccc23)c1)S(=O)(=O)C1CC1 [Example 74, N-(3-(3-(4-Fluorophenyl)-4-oxo-3,4-dihydrophthalazin-1-yl)phenyl)-N-methylcyclopropane Sulfonamide]

SMILES | Sirt6 Activity (% activity, 10 μM) [% activity]
Cl.O=c1c2ccccc2c(C2=CCNCC2)nn1-c1ccc(F)cc1F [Example 215, 2-(2,4-Difluorophenyl)-4-(1,2,3,6-tetrahydropyridin-4-yl)phthalazin-1(2H)-one-hydrochloride] | 226.60
